The record followed here is publication PMC10246279, “Parasite proteostasis and artemisinin resistance” (Research Square, 2023).

Assay [1] deals with T1, P. falciparum proteasome, β2 (trypsin-like) activity (Plasmodium falciparum, UniProt Q8I6T3).
T1 construct: gene PF3D7_1328100; native proteasome in NP-40 lysate of 26-30 hpi trophozoites; not purified; 20S core of four heptameric rings; with Proteasome subunit beta type-5; Proteasome subunit beta type-6 (beta1 catalytic subunit)
The assay is described as follows: fluorogenic Ac-RLR-AMC cleavage in lysate of drug-treated parasites. Format: cell-based. As to conditions: read-out: % inhibition at 700 nM.

Assay [2] deals with T2, P. falciparum proteasome, β1 (caspase-like) activity (Plasmodium falciparum, UniProt Q8I0U7).
T2 construct: gene PF3D7_0931800; native proteasome in NP-40 lysate of 26-30 hpi trophozoites; not purified; 20S core of four heptameric rings; with Proteasome subunit beta type-7 (beta2 catalytic subunit); Proteasome subunit beta type-5
As to the kind of experiment: fluorogenic Ac-nLPnLD-AMC cleavage in lysate of drug-treated parasites. The note with it: read-out: % inhibition at 700 nM. Format: cell-based.

The target in assay [3] is T3, P. falciparum proteasome, β5 (chymotrypsin-like) activity (Plasmodium falciparum, UniProt Q8IJT1).
T3 construct: gene PF3D7_1011400; native proteasome in NP-40 lysate of 26-30 hpi trophozoites; not purified; 20S core of four heptameric rings; with Proteasome subunit beta type-7 (beta2 catalytic subunit); Proteasome subunit beta type-6 (beta1 catalytic subunit)
As to the kind of experiment: fluorogenic Suc-LLVY-AMC cleavage in lysate of drug-treated parasites. The note with it: read-out: % inhibition at 700 nM. Format: cell-based.

Assay [4] relates to T4, P. falciparum proteasome, β1 (caspase-like) activity.
T4 construct: gene beta1
The note with it: live trophozoites treated 3 h, then lysed; K13 C580Y background; effect may be indirect.

Assay [5] concerns T5, P. falciparum proteasome, β5 (chymotrypsin-like) activity.
T5 construct: gene beta5
As to conditions: live trophozoites treated 3 h, then lysed; K13 C580Y background; effect may be indirect.

T1 sequence (Q8I6T3 entry or part of it): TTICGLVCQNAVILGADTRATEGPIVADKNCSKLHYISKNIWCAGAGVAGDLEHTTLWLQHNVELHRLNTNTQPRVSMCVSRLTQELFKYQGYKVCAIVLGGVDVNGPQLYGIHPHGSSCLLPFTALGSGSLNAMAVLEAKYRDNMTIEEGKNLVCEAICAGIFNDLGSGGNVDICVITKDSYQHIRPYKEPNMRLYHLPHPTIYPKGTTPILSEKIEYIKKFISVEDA
T3 sequence (Q8IJT1 entry or part of it): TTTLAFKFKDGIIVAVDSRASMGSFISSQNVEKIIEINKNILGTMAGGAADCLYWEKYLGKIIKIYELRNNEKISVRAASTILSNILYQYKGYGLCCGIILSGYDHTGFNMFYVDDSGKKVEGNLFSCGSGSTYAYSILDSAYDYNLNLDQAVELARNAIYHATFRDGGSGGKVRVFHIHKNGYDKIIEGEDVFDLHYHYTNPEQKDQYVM
T2 sequence (Q8I0U7 entry or part of it): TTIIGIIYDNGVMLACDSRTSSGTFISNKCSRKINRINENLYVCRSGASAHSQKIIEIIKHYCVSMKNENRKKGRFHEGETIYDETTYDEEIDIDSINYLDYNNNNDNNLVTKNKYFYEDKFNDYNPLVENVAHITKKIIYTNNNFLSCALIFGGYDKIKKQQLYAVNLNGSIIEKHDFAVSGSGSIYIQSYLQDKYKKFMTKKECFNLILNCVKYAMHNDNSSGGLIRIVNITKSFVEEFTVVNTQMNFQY

On to `C[C@@H]1CC[C@H]2[C@@H](C)C(O)O[C@@H]3O[C@@]4(C)CC[C@@H]1[C@]32OO4` (some centres unmarked) [DHA], for which the inhibition at 0.7 µM is approximately 40% in assay [1], approximately 40% in assay [2] and approximately 60% in assay [3]. The “% inhibition at 50 nM” value in assay [4] is reported as 49%.

On to `c1cc(C2CCC3(CC2)OOC2(O3)C3CC4CC(C3)CC2C4)ccc1OCCN1CCOCC1` (centres unmarked) [OZ439], for which, in assay [5], the “% inhibition at 3 μM” value is reported as 52%.

As usually defined, the inhibition is the change of the read-out against control, counted positive when it falls. As usually defined, the % inhibition is how much of the control response was suppressed. Higher therefore signals a response far below the control.
